According to ChEMBL document CHEMBL1201862, “PubChem BioAssay data set” (2004):
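Method: 48-hour compound exposure of cells in 96-well plates, five concentrations, linear interpolation of endpoints. Here, GI50 denotes the concentration required for 50% inhibition of growth.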 The source made the active and inactive calls. Cut-off read from the data, not from the text of the source: active = GI50 up to about 1.1 µM and inactive = higher.

What was measured:
Test in all cases: inhibition of tumour cell growth, NCI panel, 48 h
BT-549 = test system: BT-549
OVCAR-3 = test system: OVCAR-3
NCI-H23 = test system: NCI-H23
K562 = test system: K562
SNB-75 = test system: SNB-75
SK-MEL-28 = test system: SK-MEL-28
MCF7 = test system: MCF7
MDA-N = test system: MDA-N
HCT-15 = test system: HCT-15
HT-29 = test system: HT-29
SNB-19 = test system: SNB-19
SK-OV-3 = test system: SK-OV-3
KM12 = test system: KM12
CCRF-CEM = test system: CCRF-CEM
NCI-H522 = test system: NCI-H522
NCI-H460 = test system: NCI-H460
RPMI-8226 = test system: RPMI-8226
SF-268 = test system: SF-268
RXF 393 = test system: RXF 393
UACC-257 = test system: UACC-257

Compound	GI50 (BT-549)	GI50 (OVCAR-3)	GI50 (NCI-H23)	GI50 (K562)	GI50 (SNB-75)	GI50 (SK-MEL-28)	GI50 (MCF7)	GI50 (MDA-N)	GI50 (HCT-15) [µM]	GI50 (HT-29)	GI50 (SNB-19)	GI50 (SK-OV-3)	GI50 (KM12)	GI50 (CCRF-CEM)	GI50 (NCI-H522)	GI50 (NCI-H460)	GI50 (RPMI-8226)	GI50 (SF-268)	GI50 (RXF 393)	GI50 (UACC-257)
O=C1C=CC(=O)c2c1ccc1c3ccccc3n(-c3ccccc3)c21	13.5 µM (inactive)	8.83 µM (inactive)	15.4 µM (inactive)	0.986 µM (active)	18.9 µM (inactive)	3.34 µM (inactive)	2.11 µM (inactive)	5.64 µM (inactive)	3.48	15.8 µM (inactive)	19.5 µM (inactive)	16.8 µM (inactive)	17.9 µM (inactive)	0.304 µM (active)	1.64 µM (inactive)	17.9 µM (inactive)	1.26 µM (inactive)	17.4 µM (inactive)	1.71 µM (inactive)	5.65 µM (inactive)
NC(=O)CNC(=O)[C@@H]1CC(OCCC(=O)O)CN1C(=O)C1CCCN1C(=O)OCc1ccccc1 (stereo not given in full)	> 100 µM (inactive)	> 100 µM (inactive)	> 100 µM (inactive)	> 100 µM (inactive)	> 100 µM (inactive)	> 100 µM (inactive)	> 100 µM (inactive)	> 100 µM (inactive)	> 100	> 100 µM (inactive)	> 100 µM (inactive)	> 100 µM (inactive)	> 100 µM (inactive)	> 100 µM (inactive)	> 100 µM (inactive)	> 100 µM (inactive)	> 100 µM (inactive)	49.2 µM (inactive)	> 100 µM (inactive)	> 100 µM (inactive)
